Assay type in all cases: cell-based, human
For assay [1], the system named is Rx::Venus-positive cells (KhES-1-derived). Nature of the assay: Maintenance culture of retinal cell in Rx::Venus strain (Example 13). As to conditions: 20 ng/ml continuously added; after 34 days. The method, then: The aggregates of Day 31 from initiation of the suspension culture prepared as in Example 1 were washed with PBS, and a neuronal cell dispersion solution (manufactured by FUJIFILM Wako Pure Chemical Corp.) was added. After incubation at 37° C., they were dispersed into single cells by pipetting.
After 34 days, cell sheets were fixed in 4% PFA, and the nuclei were stained using DAPI. Observation was made focusing on the areas of Rx::Venus-positive cells, and the state of maintenance of retinal cells was studied.

The subject of assay [2] is Rx::Venus-sorted cells (KhES-1-derived NR, Day 25). Nature of the assay: Search of factor that maintains property of retina at preparation into sheet again (Example 18). As to conditions: compared with PBS control; 10 days after seeding. How it is done: The aggregates (NR) of Day 25 from initiation of the suspension culture prepared in Example 1 were washed with PBS, and a neuronal cell dispersion solution (manufactured by FUJIFILM Wako Pure Chemical Corp.) was added. After incubation at 37° C., they were dispersed into single cells by pipetting, and sorting was carried out with Rx::Venus as an index using Cell sorter ARIAII (Becton, Dickinson and Company).
3 days after seeding, the medium was similarly replaced so as to maintain the concentrations of the low-molecular compounds or the proteins described in Tables 1 and 2. […] 10 days after seeding, fixation was performed in 4% PFA, and the evaluation of the cells after sorting was conducted with Rx::Venus as an index under a fluorescence microscope (BZ-X810 manufactured by Keyence Corp.).

Assay [3] relates to aggregates (NR), KhES-1-derived neural retinal tissues. As to the kind of experiment: Study on enhancement in CD39 expression, FACS (Example 25). As to conditions: added Day 17 to Day 25; DMSO control. How it is done: For aggregates (NR) prepared by adding 300 nM SAG at the start of differentiation (dd0), 10 neural retinal tissues were transferred to low adhesive 60-mm Petri dish for suspension culture (manufactured by Sumitomo Bakelite Co., Ltd.) on Day 17 from initiation of the suspension culture. 1 mM or 0.2 mM adenosine (A2A receptor agonist, manufactured by Sigma-Aldrich Co. LLC), 1 mM, 0.2 mM, or 0.04 mM AMP-PNP (manufactured by Tocris Bioscience), 5 mM, 1 mM, 0.2 mM, or 0.04 mM ATP disodium salt (manufactured by Tocris Bioscience), and 1μ, 0.2μ, or 0.04μ M CGS 21680 (Adenosine A2A Receptor Agonist, manufactured by Tocris Bioscience) were added into 4 mL of NucT0 medium. Culture was performed up to Day 25 from initiation of the suspension culture. Change in expression of CD39 and CXCR4 was stained using Mouse IgG1-APC conjugate antibody (Miltenyi Biotec), anti-CD39-BV421 conjugate antibody (BD Biosciences) and anti-CXCR4-APC conjugate antibody (Miltenyi Biotec) and measured using FACSCantoII (BD Biosciences), and analysis was conducted using FlowJo. As a control, a DMSO addition group was established.

Assay [4] has as its system single cell suspension of dispersed retinal cells (KhES-1-derived). As to the kind of experiment: Layer structure formation-promoting factor: reformed aggregates, immunostained sections (Example 3). As to conditions: 300 nM SAG in addition to 3 μM CHIR99021. The method, then:
The aggregates of Day 26 from initiation of the suspension culture prepared as in Example 1 were washed with PBS, and a neuronal cell dispersion solution (manufactured by FUJIFILM Wako Pure Chemical Corp.) was added. After incubation at 37° C., they were dispersed into single cells by pipetting. These cells were suspended in 100 μL of a serum-free medium so as to become 3.0×10^4 cells per well of a non-cell adhesive 96-well culture plate (trade name: PrimeSurface 96-well V-bottom plate, manufactured by Sumitomo Bakelite Co., Ltd.), and suspension-cultured at 37° C. and 5% CO2.
The aggregates of Day 15 (corresponding to Differentiation Day 41) and Day 28 (corresponding to Differentiation Day 54) after suspension culture for aggregate reforming were fixed in 4% PFA, and frozen sections were prepared. These frozen sections were subjected to immunostaining using DAPI and anti-Chx10 antibody (trade name: Anti CHX10 Antibody, Exalpha Biologicals Inc.), anti-β-catenin antibody (R&D Systems, Inc.), anti-collagen IV antibody (Abcam plc), anti-Zo-1 antibody (Invitrogen Corp.), anti-Ki67 antibody (Becton, Dickinson and Company), anti-Pax6 antibody (BioLegend, Inc.), anti-RxR-γ (RxRg) antibody (Spring Bioscience Corp.), anti-CRX antibody (Abnova Corp.), anti-NRL antibody (R&D Systems, Inc.), anti-recoverin antibody (manufactured by Proteintech Group, Inc.), anti-Islet-1 antibody (Developmental Studies Hybridoma Bank (DSHB)), anti-GS antibody (Sigma-Aldrich Co., LLC), anti-Brn3 antibody (Santa Cruz Biotechnology), and anti-calretinin antibody (R&D Systems, Inc.).
These immunostained sections were observed under a bright field microscope and a fluorescence microscope (BZ-X810 manufactured by Keyence Corp.) and a confocal laser scanning fluorescence microscope (SP-8 manufactured by Leica), and the results are shown in FIGS. 11 to 20. […] From FIGS. 19 and 20, it was confirmed that RxR-Y(RxRg)-positive and CRX-positive cone progenitor cells and recoverin-positive and CRX-positive photoreceptor progenitor cells were differentiated, and the differentiation of Islet-1-positive and Brn3-positive retinal ganglion cells and calretinin-positive amacrine cells was also confirmed.

For assay [5], the system named is single cells dispersed from KhES-1- and 1231A3-derived aggregates. As to the kind of experiment: Aggregate proliferation-promoting factor: aggregate area in suspension culture with Y-27632 (Example 2). As to conditions: SAG 300 nM or CHIR99021 3 μM in addition to 10 μM Y-27632; Day 1, 7, 14. The method, then: The aggregates of Day 20 (1231A3) and Day 27 (KhES-1) from initiation of the suspension culture prepared as in Example 1 were washed with PBS, and a neuronal cell dispersion solution (manufactured by FUJIFILM Wako Pure Chemical Corp.) was added. After incubation at 37° C., they were dispersed into single cells by pipetting. These cells were suspended in 100 μL of a serum-free medium containing 10 μM Y-27632 (FUJIFILM Wako Pure Chemical Corp.) so as to become 2 to 5×10^5 cells per well of a non-cell adhesive 96-well culture plate (trade name: PrimeSurface 96-well V-bottom plate, manufactured by Sumitomo Bakelite Co., Ltd.), and suspension-cultured at 37° C. and 5% CO2. […] The reformed states of the aggregates were observed under a bright field microscope and a fluorescence microscope (BZ-X810 manufactured by Keyence Corp.) on Day 1, Day 7, and Day 14 after suspension culture for aggregate reforming. The areas of the aggregates were measured in Image J. The results of the KhES-1-derived cells are shown in FIG. 6 (an average value from 12 […] measured). The results of the 1231A3-derived cells in which the reformed states of the aggregates of Day 1 after suspension culture were observed are shown in FIG. 7.

Assay [6] relates to KhES-1 Rx::Venus aggregates (NR) of Day 26. As to the kind of experiment: CD39 expression analysis with different concentrations of SAG at start of differentiation (Example 24). How it is done: The morphology of aggregates (NR) of Day 26 from initiation of the suspension culture prepared by adding (1) 0 nM, (2) 30 nM, or (3) 300 nM SAG at the start of differentiation was observed under a microscope.
The aggregates were dispersed into single cells using a neuronal cell dispersion solution, and FACS analysis was conducted as to the expression of CD39 and CXCR4 using anti-CD39-APC conjugate antibody (Miltenyi Biotec) and anti-CXCR4-APC conjugate antibody (Miltenyi Biotec). The percentage of an expressing cell population was measured using FACSCantoII (BD Biosciences), and analysis was conducted using FlowJo. These aggregates were fixed in 4% PFA, and sections were prepared and then subjected to staining using anti-ALDH1A1 antibody (R&D Systems, Inc.), anti-CoupTF1 antibody (Perseus Proteomics Inc. (PPMX)), anti-LHX2 antibody (manufactured by Merck Millipore), anti-Chx10 antibody (manufactured by Exalpha Biologicals Inc.), anti-Pax2 antibody (manufactured by Covance), and anti-NKX2.1 antibody (manufactured by Leica).

From patent US20250019652A1, “PRODUCTION METHOD FOR SHEET-LIKE RETINAL TISSUE” (RIKEN, priority 2021, published 2025) come the findings set out here.

Regarding “FGF2: fibroblast growth factor, FGF signaling pathway agonist”, the “maintenance of Rx::Venus-positive cells” value in assay [1] is “Rx::Venus-positive cells were widely maintained”. The “expression intensity of Rx::Venus” value in assay [2] is reported as “high expression intensity of Rx::Venus”.

As to `Nc1ncnc2c1ncn2[C@@H]1O[C@H](COP(=O)(O)OP(=O)([O-])OP(=O)([O-])O)[C@@H](O)[C@H]1O.[Na+].[Na+]` [ATP], in assay [3], the “expression of CD39 (FACS)” value is “enhancing the expression of CD39” and the “expression of CXCR4 (FACS)” value was “decreasing the expression of CXCR4”.

As for `CNC1CCC(N(Cc2cccc(-c3ccncc3)c2)C(=O)c2sc3ccccc3c2Cl)CC1` (stereo not shown) [SAG], in assay [4], the size of aggregates entry is listed as “aggregates were larger”. Moreover, the “size of reformed aggregates versus only Y-27632” value in assay [5] was “larger aggregates were reformed”. For the same compound, the morphology of aggregates entry in assay [6] (0 nM and 30 nM SAG compared with 300 nM SAG at dd0, Day 26) was “aggregates were larger and a layer structure was clearer”. In assay [6] (300 nM SAG at dd0), the “expression of CD39 (FACS)” value is given as “CD39 was expressed” and the “expression of CXCR4 (FACS)” value is recorded as “low expression of CXCR4 was observed”. Moreover, in assay [6] (addition of SAG on dd0), the “expression of dorsal marker ALDH1A1” value is “Decrease in expression of a dorsal marker ALDH1A1” and the “expression of ventral marker CoupTF1” value is recorded as “increase in expression of a ventral marker CoupTF1”.

As for `O=C(Nc1cccc2cccnc12)c1ccc(N2C(=O)[C@@H]3[C@H](C2=O)[C@@H]2C=C[C@H]3C2)cc1` [IWR1 endo, 4-[(3aR,4S,7R,7aS)-1,3,3a,4,7,7a-hexahydro-1,3-dioxo-4,7-methano-2H-isoindol-2-yl]-N-8-quinolinyl-benzamide, reference compound], the “expression intensity of Rx::Venus” value in assay [2] was “high expression intensity of Rx::Venus”.

Consider EGF: growth factor added at 20 ng/ml, for which the “maintenance of Rx::Venus-positive cells” value in assay [1] is recorded as “Rx::Venus-positive cells were widely maintained”.
